Laboratory results from US20060094783A1 (Tava Pharmaceutical Industries, Ltd., priority 1990, published 2006).
Where a name gives a salt, the structure may show the parent alone.

Key:
[1] = system: haloperidol-induced catalepsy in mice; experiment: Reversal of haloperidol-induced catalepsy in mice; format: in vivo, mouse; conditions: for Score + SE: haloperidol 6 mg/kg s.c., max score 12; for % of control: score vs saline control
Experimental: All drugs were administered i.p. in a volume of 0.2 mL. Two hours later, haloperidol was injected s.c. at a dose of 6 mg/kg in a volume of 0.1-0.2 mL. Motor coordination tests were made at 3 hours after giving haloperidol, that is, 5 hours after administering the presumed protective drugs.
Motor coordination tests and rigidity were quantified according to three different parameters: (a) ability to walk the length of a horizontal rod, 80 cm-long; (b) ability to climb down, face down, a vertical rod, 80 cm-long; (c) duration of immobility in an unnatural sitting posture whereby the abdomen of the mouse is pressed against a “wall.” Full performance as in haloperidol-untreated mice is given the score of 4 in each test, or a total of 12 in all tests. Poor performance is given a score from 1 to 3.

[2] = system: α-MpT-induced hypokinesia in rats; experiment: Reversal of α-MpT-induced hypokinesia in rats; format: in vivo, rat; conditions: for Score + SE (total motor activity, 10 hours): α-MpT 100 mg/kg i.p.
Experimental: The drug α-MpT is assumed to inhibit the formation of L-DOPA from tyrosine, and consequently the formation of dopamine itself. Lack of CNS dopamine is expressed as hypoactivity. […] Two hours later they received i.p. α-MpT at a dose of 100 mg/kg in 0.3-0.5 mL. Controls received saline. Following this, motor activity was recorded in a computerized activity cage for the duration of 10 hours.

[3] = target: T1, MAO-A (Rattus norvegicus, UniProt P21396); experiment: Inhibition of MAO activity in vivo, acute treatment, MAO-A; conditions: rat
T1 construct: MAO activity determined in brain and liver; from tissue; host or cells: brain and liver of male Sprague-Dawley-derived rats
T1 sequence (P21396 1-526): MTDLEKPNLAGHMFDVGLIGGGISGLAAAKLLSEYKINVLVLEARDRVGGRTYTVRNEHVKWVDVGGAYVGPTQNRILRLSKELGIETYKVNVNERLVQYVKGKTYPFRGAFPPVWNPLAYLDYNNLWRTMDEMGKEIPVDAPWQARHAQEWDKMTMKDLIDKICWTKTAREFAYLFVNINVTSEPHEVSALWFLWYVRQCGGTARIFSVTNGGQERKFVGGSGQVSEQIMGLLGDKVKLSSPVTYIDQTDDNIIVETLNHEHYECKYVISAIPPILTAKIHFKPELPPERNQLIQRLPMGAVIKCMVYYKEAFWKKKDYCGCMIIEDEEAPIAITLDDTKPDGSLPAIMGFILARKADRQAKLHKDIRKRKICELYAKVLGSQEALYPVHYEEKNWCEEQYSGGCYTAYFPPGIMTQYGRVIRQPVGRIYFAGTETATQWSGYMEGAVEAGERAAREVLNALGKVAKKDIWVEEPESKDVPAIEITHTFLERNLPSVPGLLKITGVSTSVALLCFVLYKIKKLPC

[4] = system: cardiovascular effects in animals; conditions: cited from earlier work
[5] = target: T2, MAO-B (Rattus norvegicus, UniProt P19643); experiment: Inhibition of MAO activity in vivo, acute treatment, MAO-B; set-up: in a rat brain preparation of MAO; host or cells: rat brain preparation
T2 sequence (P19643 1-520): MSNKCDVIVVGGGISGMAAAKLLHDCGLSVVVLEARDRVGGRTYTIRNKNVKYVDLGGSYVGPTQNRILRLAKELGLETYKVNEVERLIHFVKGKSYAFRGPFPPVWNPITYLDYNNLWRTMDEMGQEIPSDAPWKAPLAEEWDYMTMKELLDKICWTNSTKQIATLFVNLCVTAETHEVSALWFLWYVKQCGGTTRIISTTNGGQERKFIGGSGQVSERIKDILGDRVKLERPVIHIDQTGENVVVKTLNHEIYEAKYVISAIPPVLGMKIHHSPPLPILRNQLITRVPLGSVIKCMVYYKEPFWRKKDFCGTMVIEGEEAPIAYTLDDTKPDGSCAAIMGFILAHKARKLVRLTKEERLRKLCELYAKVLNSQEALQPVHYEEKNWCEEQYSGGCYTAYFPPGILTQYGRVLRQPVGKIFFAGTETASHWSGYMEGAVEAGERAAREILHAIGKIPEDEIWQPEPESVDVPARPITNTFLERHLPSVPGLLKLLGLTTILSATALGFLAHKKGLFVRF

[6] = system: maximal electroshock seizures in rats; experiment: Maximal electroshock test (MES test) in rats; format: in vivo, rat; conditions: p.o., 50 mg/kg
From the text: The MES test is a classical model to indicate efficacy for partial and generalized seizures in humans. The agents' mechanism of action is via their ability to prevent the spread of seizures. Some agents, however, that prevent seizure spread have the side effect of lowering seizure threshold. These agents therefore have both proconvulsive and anticonvulsive side effects.

[7] = system: guinea-pig ileum; experiment: Antagonism of bethanechol-induced (fixed dose) contractions of guinea-pig ileum; conditions: bethanechol 0.8 μM
[8] = system: neonatal rat cerebellum cell cultures; conditions: 0.01 μM + NMDA
Experimental: Procedures: cultures of mechanically dissociated neonatal rat cerebellum. […] The cerebella are then dissociated after 20-25 passages through a sterile 13 gauge, 10 cm long stainless steel needle attached to a 5 ml syringe with an inserted 45 μm pore size nylon sieve. The dissociated cells are centrifuged at 200 g for 5 minutes, the supernatant discarded and the cells resuspended in enriched medium. The cell viability is determined by the trypan blue exclusion test. […] After 4 days in culture, the media are replaced with media containing the desired test compounds. Experiments are done in duplicate and repeated 2 or 3 times. […] Nerve cell survival is evaluated by phase contrast microscopy and trypan blue staining after 24 h.
Values, expressed as the percent of untreated controls, represent the average of 2 experiments run in duplicate for culture experiments, and the mean±SEM of 4 animals for ischemia. The percent protection value is the effect of the test compound after subtraction of the solvent effect.

[9] = Appearance of PAI salts under destructive conditions; format: physicochemical
Experimental: Comparative stability studies were carried out under sets of several accelerating conditions: I) heating at 80° C. for 72, 96 or 144 hours; and II) reflux in isopropanol for 30 hours. The degradation products developed were measured by HPLC and confirmed by TLC. The results are presented in Table 9 with the relative retention time (relative to the PAI peak; RRT) as an area percentage relative to ? integrated peak area.
The salts were submitted to visual inspection of color an form.

[10] = Physicochemical properties of PAI salts; conditions: for pH: 1% aqueous solution of the PAI salt
Experimental: The melting range was measured with an automatic apparatus (Mettler FP 80) and thermo-gravimetric analysis was performed on a Mettler TA 3000 system at a rate of 10° C./min in the applicable range. […] The pH was measured in a 1% aqueous solution of the PAI salts.

For C#CCNC1CCc2ccccc21 (racemic) [Rac PAI Mesylate], the “Score + SE” value ([1]; 3.0 mg/kg i.p. (free base)) was 5.9 ± 0.7, the “% of control” value ([1]; 3.0 mg/kg i.p.) was 49% and the “protection against haloperidol (in words)” value ([1]; 5 mg/kg) was “not active”. For the same compound, the “Score + SE” value ([1]; 5.0 mg/kg i.p. (free base)) was 6.4 ± 0.4, the “% of control” value ([1]; 5.0 mg/kg i.p.) was 53% and the “Score + SE” value ([1]; 10 mg/kg i.p. (free base)) was 9.2 ± 0.6. The “% of control” value ([1]; 10 mg/kg i.p.) was 77%, the “Score + SE” value ([1]; 15 mg/kg i.p. (free base)) was 8.8 ± 0.8 and the “% of control” value ([1]; 15 mg/kg i.p.) was 73%. The “restoration of motor activity (in words)” value ([2]; 2 mg/kg) was “not active”, the “% of control” value ([2]; 2 mg/kg i.p., vs saline control) was 57% and the “Score + SE (total motor activity, 10 hours)” value ([2]; 2 mg/kg i.p.) was 9,035 ± 829. For the same compound, the “Score + SE (total motor activity, 10 hours)” value ([2]; 5 mg/kg i.p.) was 10,926 ± 820 and the “Score + SE (total motor activity, 10 hours)” value ([2]; […] i.p.) was 9,698 ± 557.
For C#CCNC1CCc2ccccc21 (racemic) [Rac, N-propargyl-1-aminoindan], the “IC-50 MAO-A” value ([3]; I.P., liver, 1 h after dose) was 5 mg/kg, the “IC-50 MAO-A” value ([3]; P.O., brain, 2 h after dose) was greater than 5 mg/kg and the “IC-50 MAO-A” value ([3]; P.O., liver, 2 h after dose) was greater than 5 mg/kg. For the same compound, the blood pressure ([4]; comparative animal tests) was “does not increase blood pressure”, the tachycardia ([4]; comparative animal tests) was “no significant tachycardia” and the “IC-50 MAO-B” value ([5]; I.P., brain, 1 h after dose) was 0.22 mg/kg. For the same compound, the “IC-50 MAO-B” value ([5]; I.P., liver, 1 h after dose) was 0.11 mg/kg and the “IC-50 MAO-B” value ([5]; P.O., liver, 2 h after dose) was 0.09 mg/kg.
For C#CCNC1CCc2ccccc21.Cl (racemic) [racemic PAI.HCl, Racemic N-propargyl-1-aminoindan hydrochloride], the “potentiation of the cardiovascular effects of tyramine” value ([4]; Finberg et al.) is given as “does not potentiate”.
With C#CCN[C@@H]1CCc2ccccc21.Cl [(R)-PAI HCl, R-(+)-N-Propargyl-1-aminoindan hydrochloride] the “animals protected from seizures” value [6] was “three out of four”, the Percent relaxation ([7]; PAI concentration 20 μM) was 25 and the Percent relaxation ([7]; PAI concentration 60 μM) was 25-50. For the same compound, the Percent relaxation ([7]; PAI concentration 100 μM) was 50-70 and the Percent relaxation ([7]; PAI concentration 300 μM) was 100.
In the case of NCCCNCCCCNCCCN [Spermine, reference compound], the “Surviving Cells (percent of untreated controls)” value [8] is reported as 75 and the “Percent Protection” value ([8]; after subtraction of solvent effect) is reported as 65.
In the case of Cl [chloride], the “appearance: color” value ([9]; 80° C./72 h) is reported as “white”, the “appearance: form” value ([9]; 80° C./72 h) is reported as “powder” and the “appearance: color” value ([9]; 80° C./144 h) is reported as “white”. The “appearance: form” value ([9]; 80° C./144 h) was “powder”, the “appearance: color” value ([9]; reflux in iPrOH/30 h) was “off white” and the “appearance: form” value ([9]; reflux in iPrOH/30 h) was “powder”.
In the case of C#CCN[C@@H]1CCc2ccccc21.CCS(=O)(=O)O [esylate], the “appearance: color” value ([9]; 80° C./72 h) is reported as “brownish”, the “appearance: form” value ([9]; 80° C./72 h) is reported as “melted” and the “appearance: color” value ([9]; 80° C./144 h) is reported as “dark brown”. The “appearance: form” value ([9]; 80° C./144 h) was “melted”, the “appearance: color” value ([9]; reflux in iPrOH/30 h) was “dark brown” and the “appearance: form” value ([9]; reflux in iPrOH/30 h) was “melted”. The pH [10] was 2.4.
With C#CCN[C@@H]1CCc2ccccc21.C#CCN[C@@H]1CCc2ccccc21.O=S(=O)(O)O [sulphate] the “appearance: color” value ([9]; 80° C./72 h) was “off white”, the “appearance: form” value ([9]; 80° C./72 h) was “powder” and the “appearance: color” value ([9]; 80° C./144 h) was “off white”. The “appearance: form” value ([9]; 80° C./144 h) was “powder”, the “appearance: color” value ([9]; reflux in iPrOH/30 h) was “brown” and the “appearance: form” value ([9]; reflux in iPrOH/30 h) was “powder”. For the same compound, the pH [10] was 3.9 and the “% Wt. loss” value ([10]; thermo-gravimetric analysis, 10° C./min) was 3.2%.
With maleate the “appearance: color” value ([9]; 80° C./72 h) was “brown”, the “appearance: form” value ([9]; 80° C./72 h) was “melted” and the “appearance: color” value ([9]; 80° C./96 h) was “brown”. For the same compound, the “appearance: color” value ([9]; reflux in iPrOH/30 h) was “brown” and the “appearance: form” value ([9]; reflux in iPrOH/30 h) was “melted”.
For phosphate, the “appearance: color” value ([9]; 80° C./72 h) was “brownish”, the “appearance: form” value ([9]; 80° C./72 h) was “powder” and the “appearance: color” value ([9]; 80° C./144 h) was “brown”. The “appearance: form” value ([9]; 80° C./144 h) was “powder”, the “appearance: color” value ([9]; reflux in iPrOH/30 h) was “brown” and the “appearance: form” value ([9]; reflux in iPrOH/30 h) was “powder”. For the same compound, the pH [10] was 7.0.
